From US4214093A, “Amino- or guanidino-1,2,3,4-tetrahydro-1-naphthoic esters” (Torii & Co., Ltd., priority 1977, dated 1980)
Where a name gives a salt, the structure may show the parent alone. Read-outs that look alike come from different tables or passages of the source.

What was measured:
Format in all cases: biochemical
[1] = target: Bovine Thrombin (Bos taurus, UniProt P00735); assay: Inhibitory effect on ester-hydrolyzing activity of bovine thrombin (TAMe substrate); conditions: for inhibition at 1000 µM: at 10^-3 M, in vitro, TAMe, read-out: Thrombin percent inhibition
Protocol: The enzyme-inhibitory activities in vitro of the compounds of this invention were measured by the following procedure according to the method of M. Muramatsu et al. [M. Muramatsu, T. Onishi, S. Makino, Y. Hayashi and S. Fujii: J. Biochem., 58, 214 (1965)]
To 0.1 ml of trypsin (5 μg/ml) were added 0.5 ml of 0.1 M borate buffer solution (pH 8.6) containing 10 mM CaCl2, and 0.1 ml of a varying concentration of an inhibitor solution, and preincubation was carried out at 37° C. for 5 minutes. Then, 10 μmoles of the substrate, TAMe (tosylarginine methyl ester), was added, and incubation was preformed at 37° C. for 30 minutes.
After the incubation, 1.5 ml of 2 M alkaline hydroxylamine was added and thoroughly mixed, and allowed to stand at room temperature for 15 minutes. Then, 1.0 ml of each of 18% trichloroacetic acid, 4 N HCl and 10% FeCl3 was added and thoroughly mixed. If necessary, the mixture was centrifuged at 3,000 rpm for 10 minutes, and the absorbance of the supernatant was measured at 530 nm.
It was measured by using 0.4 ml of bovine thrombin […], 0.02 M sodium phosphate buffer solution (pH 7.4) and TAMe as substrate following the method described in (1).

[2] = target: Human Plasmin (Homo sapiens, UniProt P00747); assay: Inhibitory effect on ester-hydrolyzing activity of human plasmin (TAMe substrate); conditions: for IC50 / inhibition at 1000 µM: in vitro, TAMe; for IC50: Table 4 bracketed value, read-out: Plasmin ID50; for inhibition at 1000 µM: at 10^-3 M, read-out: Plasmin percent inhibition
Chain of Human Plasmin (P00747 581-810 limits assumed): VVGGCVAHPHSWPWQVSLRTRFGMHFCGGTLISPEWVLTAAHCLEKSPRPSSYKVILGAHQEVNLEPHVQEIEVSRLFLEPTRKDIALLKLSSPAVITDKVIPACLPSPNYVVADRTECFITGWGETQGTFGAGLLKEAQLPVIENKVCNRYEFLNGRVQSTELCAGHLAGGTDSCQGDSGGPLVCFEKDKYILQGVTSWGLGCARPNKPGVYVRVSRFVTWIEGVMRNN
Chain of Human Plasmin (P00747 97-580 partner limits assumed): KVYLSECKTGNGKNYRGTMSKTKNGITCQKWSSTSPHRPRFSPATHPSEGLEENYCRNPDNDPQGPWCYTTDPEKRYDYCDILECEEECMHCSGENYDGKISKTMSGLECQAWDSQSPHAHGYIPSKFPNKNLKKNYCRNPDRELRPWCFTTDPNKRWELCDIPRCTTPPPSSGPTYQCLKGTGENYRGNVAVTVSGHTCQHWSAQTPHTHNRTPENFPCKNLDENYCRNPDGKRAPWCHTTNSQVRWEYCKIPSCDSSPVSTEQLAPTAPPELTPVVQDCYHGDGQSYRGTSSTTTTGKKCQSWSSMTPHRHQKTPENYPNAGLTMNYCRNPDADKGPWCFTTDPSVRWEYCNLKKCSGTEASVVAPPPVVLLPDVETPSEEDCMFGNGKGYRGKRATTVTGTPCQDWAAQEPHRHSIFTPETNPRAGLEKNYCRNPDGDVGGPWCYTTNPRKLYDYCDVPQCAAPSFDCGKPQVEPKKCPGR
Protocol: The enzyme-inhibitory activities in vitro of the compounds of this invention were measured by the following procedure according to the method of M. Muramatsu et al. [[…]. […] After the incubation, 1.5 ml of 2 M alkaline hydroxylamine was added and thoroughly mixed, and allowed to stand at room temperature for 15 minutes. […] It was measured by using 0.1 ml of plasmin (generated by activation of plasminogen with streptokinase) and TAMe as substrate following the method described in (1).

[3] = target: Human Plasma Kallikrein (Homo sapiens, UniProt P03952); assay: Inhibitory effect on ester-hydrolyzing activity of human plasma kallikrein (TAMe substrate); conditions: for inhibition at 1000 µM: read-out: Kallikrein percent inhibition; for IC50: Table 4 bracketed value, read-out: Kallikrein ID50
Chain of Human Plasma Kallikrein (P03952 391-638 limits assumed): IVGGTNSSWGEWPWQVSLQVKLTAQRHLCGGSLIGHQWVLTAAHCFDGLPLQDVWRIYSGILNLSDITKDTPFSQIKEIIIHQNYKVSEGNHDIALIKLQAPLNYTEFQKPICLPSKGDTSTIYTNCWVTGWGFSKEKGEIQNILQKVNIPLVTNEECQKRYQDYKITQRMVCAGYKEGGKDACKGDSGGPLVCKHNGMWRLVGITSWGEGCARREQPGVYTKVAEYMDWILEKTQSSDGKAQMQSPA
Chain of Human Plasma Kallikrein (P03952 20-390 partner limits assumed): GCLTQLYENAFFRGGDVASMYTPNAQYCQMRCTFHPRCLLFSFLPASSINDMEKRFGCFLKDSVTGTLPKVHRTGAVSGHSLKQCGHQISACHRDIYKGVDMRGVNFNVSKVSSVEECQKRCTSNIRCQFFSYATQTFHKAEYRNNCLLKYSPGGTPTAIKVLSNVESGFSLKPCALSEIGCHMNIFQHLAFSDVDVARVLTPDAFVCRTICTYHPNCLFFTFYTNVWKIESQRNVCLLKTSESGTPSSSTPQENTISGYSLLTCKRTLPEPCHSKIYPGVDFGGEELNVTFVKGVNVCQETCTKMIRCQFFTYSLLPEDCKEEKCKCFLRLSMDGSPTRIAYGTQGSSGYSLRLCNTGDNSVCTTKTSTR
Protocol: (§1) The enzyme-inhibitory activities in vitro of the compounds of this invention were measured by the following procedure according to the method of M. Muramatsu et al. [[…]. […] After the incubation, 1.5 ml of 2 M alkaline hydroxylamine was added and thoroughly mixed, and allowed to stand at room temperature for 15 minutes.

[4] = target: T1, Human Cl Esterase (Homo sapiens, UniProt P09871); assay: Inhibitory effect on ester-hydrolyzing activity of human Cl esterase (ATEe substrate); conditions: for IC50: pH 7.4, Table 4 bracketed value, read-out: Cl-esterase ID50; for inhibition at 1000 µM: read-out: Cl-esterase percent inhibition
T1 sequence (P09871 438-688 limits assumed): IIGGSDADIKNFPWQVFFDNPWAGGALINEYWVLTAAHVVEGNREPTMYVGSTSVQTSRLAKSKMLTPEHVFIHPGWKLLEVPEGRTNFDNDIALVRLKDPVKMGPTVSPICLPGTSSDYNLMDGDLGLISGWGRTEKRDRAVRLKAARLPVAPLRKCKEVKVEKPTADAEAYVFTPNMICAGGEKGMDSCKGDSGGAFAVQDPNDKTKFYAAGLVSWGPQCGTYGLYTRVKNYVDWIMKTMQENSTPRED
T1 sequence (P09871 16-437 partner limits assumed): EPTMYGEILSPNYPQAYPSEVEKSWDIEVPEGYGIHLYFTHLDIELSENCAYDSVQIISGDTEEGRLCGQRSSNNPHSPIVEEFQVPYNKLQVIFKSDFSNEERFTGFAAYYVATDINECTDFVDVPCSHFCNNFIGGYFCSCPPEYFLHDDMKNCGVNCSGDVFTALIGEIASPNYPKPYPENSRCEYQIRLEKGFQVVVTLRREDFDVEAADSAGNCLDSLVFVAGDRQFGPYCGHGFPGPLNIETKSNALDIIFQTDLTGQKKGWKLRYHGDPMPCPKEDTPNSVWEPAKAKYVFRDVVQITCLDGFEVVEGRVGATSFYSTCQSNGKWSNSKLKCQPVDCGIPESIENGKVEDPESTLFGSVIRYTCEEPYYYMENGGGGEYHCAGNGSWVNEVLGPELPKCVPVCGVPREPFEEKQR
Protocol: It was measured by using 0.1 ml of Cl esterase, 0.1 ml of 0.02 M sodium phosphate buffer solution (pH 7.4 ) and 10 μmoles of ATEe (acetyltyrosine ethyl ester) as substrate following the method described in (1).

[5] = target: T2, Trypsin (Bos taurus, UniProt P00760); assay: Inhibitory effect on ester-hydrolyzing activity of trypsin (TAMe substrate); conditions: for inhibition at 1000 µM: read-out: Trypsin percent inhibition
T2 sequence (P00760 24-246): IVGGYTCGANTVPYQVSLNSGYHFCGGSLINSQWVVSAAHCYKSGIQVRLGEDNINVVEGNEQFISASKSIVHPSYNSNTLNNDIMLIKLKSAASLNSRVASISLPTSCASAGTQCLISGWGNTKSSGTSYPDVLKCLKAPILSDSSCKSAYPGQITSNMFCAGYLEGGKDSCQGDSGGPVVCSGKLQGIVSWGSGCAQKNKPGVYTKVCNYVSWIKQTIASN
Protocol: as §1

[6] = in vitro, TAMe, pH 8.6, 37° C., Table 4 bracketed value, read-out: Trypsin ID50

Row | Compound | IC50 [1] [µM] | IC50 [2] [µM] | IC50 ([4]; in vitro, ATEe) [µM] | inhibition at 1000 µM [1] [%] | inhibition at 1000 µM [2] [%] | inhibition at 1000 µM ([3]; at 10^-3 M, in vitro, TAMe) [%] | IC50 [5, 6] [µM] | other results
1 | CCCCOc1ccc(OC(=O)C2CCCc3c(NC(=N)N)cccc32)cc1 (stereo not shown) [Compound 116] | 1000 | 1000 | 350 |  |  |  |  | inhibition at 1000 µM [3]: 29.3%; inhibition at 1000 µM [5]: < 3.2%
2 | CCOC(=O)c1ccc(OC(=O)C2CCCc3c(NC(=N)N)cccc32)cc1 (stereo not shown) [Compound 121, ethoxycarbonylphenyl 5-guanidino-1,2,3,4-tetrahydro-1-naphthoate hydrochloride] |  |  |  |  |  |  |  | IC50 ([5]; Example 6, read-out: ID50, tosylarginine methyl ester hydrolyzing activity of trypsin (unit inferred)): 74 µM
3 | CCOC(=O)COC(=O)c1ccc(OC(=O)C2CCCc3ccc(N)cc32)cc1 (stereo not shown) [Compound 98] |  |  |  | 40.5 | 24.6 | < 3.2 | 60 | inhibition at 1000 µM ([4]; at 10^-3 M, in vitro, ATEe): < 3.2%
4 | COC(=O)c1cccc(OC(=O)C2CCCc3c(N)cccc32)c1 (stereo not shown) [Compound 64] |  |  |  | 20.3 | < 3.2 | 28 | 61 | inhibition at 1000 µM ([4]; at 10^-3 M, in vitro, ATEe): < 3.2%
5 | Nc1cccc2c1CCCC2C(=O)Oc1ccc(OC(=O)C2CCCc3c(N)cccc32)cc1 (stereo not shown) [Compound 78] |  |  |  | 24.4 | < 3.2 |  | 36 | IC50 ([3]; in vitro, TAMe): 360 µM; inhibition at 1000 µM ([4]; at 10^-3 M, in vitro, ATEe): 15.2%
6 | CN(C)C(=O)COC(=O)Cc1ccc(OC(=O)C2CCCc3ccc(N)cc32)cc1 (stereo not shown) [Compound 101] | 300 | 48 |  |  |  | 34.4 | 110 | inhibition at 1000 µM [4]: 31.5%
7 | Nc1ccc2c(c1)C(C(=O)Oc1ccc(OC(=O)C3CCCc4ccc(N)cc43)cc1)CCC2 (stereo not shown) [Compound 106] |  |  |  | 35 | < 3.2 | < 3.2 | 92 | inhibition at 1000 µM ([4]; at 10^-3 M, in vitro, ATEe): 31%
8 | CN(C)C(=O)COC(=O)CCc1ccc(OC(=O)C2CCCc3ccc(N)cc32)cc1 (stereo not shown) [Compound 103] | 1000 |  |  |  | 21.5 | 13.3 | 78 | inhibition at 1000 µM [4]: 27.2%
9 | N=C(N)Nc1cccc2c1CCCC2C(=O)Oc1cccc2c1CCCC2 (stereo not shown) [Compound 164] |  |  | 400 | < 3.2 | 46.1 |  | 1000 | IC50 ([3]; in vitro, TAMe): 1000 µM
10 | N=C(N)Nc1ccc2c(c1)C(C(=O)Oc1cccc3ccccc13)CCC2 (stereo not shown) [Compound 159] |  |  | 180 | 46 | 27.6 |  | 320 | IC50 ([3]; in vitro, TAMe): 110 µM
11 | N=C(N)Nc1cccc2c1CCCC2C(=O)Oc1ccc(C(=O)OCc2ccccc2)cc1 (stereo not shown) [Compound 124] |  | 60 | 1000 | 45 |  |  | 75 | IC50 ([3]; in vitro, TAMe): 190 µM
12 | CN(C)C(=O)COC(=O)c1ccc(OC(=O)C2CCCc3ccc(N)cc32)cc1 (stereo not shown) [Compound 100] | 40 | 53 |  |  |  | 36 | 190 | inhibition at 1000 µM [4]: 42%
13 | N=C(N)Nc1ccc2c(c1)C(C(=O)Oc1cccc3c1CCCC3)CCC2 (stereo not shown) [Compound 167] |  | 1000 | 420 | < 3.2 |  |  |  | IC50 ([3]; in vitro, TAMe): 200 µM; inhibition at 1000 µM ([5]; at 10^-3 M, in vitro, TAMe): 44.8%
14 | CCCOC(=O)c1ccc(OC(=O)C2CCCc3ccc(NC(=N)N)cc32)cc1 (stereo not shown) [Compound 151] | 42 | 480 | 330 |  |  |  | 100 | 
15 | CCCOC(=O)c1ccc(OC(=O)C2CCCc3c(NC(=N)N)cccc32)cc1 (stereo not shown) [Compound 123] |  | 900 | 350 | 46.7 |  |  |  | inhibition at 1000 µM ([5]; at 10^-3 M, in vitro, TAMe): 45.7%
16 | CCOC(=O)COC(=O)CCc1ccc(OC(=O)C2CCCc3ccc(NC(=N)N)cc32)cc1 (stereo not shown) [Compound 157] | 120 | 210 | 420 |  |  |  |  | inhibition at 1000 µM [3]: 48.5%; inhibition at 1000 µM [5]: 48.8%
17 | N=C(N)Nc1cccc2c1CCCC2C(=O)Oc1ccc(C(=O)OCC(N)=O)cc1 (stereo not shown) [Compound 126] | 290 | 580 |  |  |  | 46.9 | 75 | inhibition at 1000 µM [4]: 30.6%
18 | CCCOC(=O)c1ccc(OC(=O)C2CCCc3ccc(N)cc32)cc1 (stereo not shown) [Compound 96] |  |  |  | 25.1 | < 3.2 |  | 68 | inhibition at 1000 µM ([4]; at 10^-3 M, in vitro, ATEe): < 3.2%
19 | N=C(N)Nc1cccc2c1CCCC2C(=O)Oc1cccc2ccccc12 (stereo not shown) [Compound 131] |  |  | 410 | < 3.2 | 13.8 |  | 830 | IC50 ([3]; in vitro, TAMe): 1000 µM
20 | COC(=O)c1ccc(OC(=O)C2CCCc3c(N)cccc32)cc1 (stereo not shown) [Compound 63] | 1000 |  |  |  | 35 |  | 18 | inhibition at 1000 µM [4]: 16.5%
21 | CCCOC(=O)c1ccc(OC(=O)C2CCCc3c(N)cccc32)cc1 (stereo not shown) [Compound 68] |  |  |  | < 3.2 | < 3.2 |  | 41 | inhibition at 1000 µM ([4]; at 10^-3 M, in vitro, ATEe): < 3.2%
22 | Cl.Nc1ccc2c(c1)C(C(=O)Oc1ccc(Cl)cc1)CCC2 (stereo not shown) [Compound 83, p-chlorophenyl 7-amino-1,2,3,4-tetrahydro-1-naphthoate hydrochloride] |  |  |  |  |  |  |  | inhibitory activity on thrombin ([1]; text of Examples): no inhibitory action; inhibitory activity on plasmin ([2]; text of Examples): no inhibitory action; inhibitory activity on kallikrein ([3]; text of Examples): no inhibitory action; inhibitory activity on Cl-esterase ([4]; text of Examples): no inhibitory action
